Patent publication US20080114007A1 (priority 2006, published 2008)

What follows are compounds tested against CSF-1R (Homo sapiens, UniProt P07333) (assay: Peptide (non-phosphorylated) assay, fluorescence polarization competition immunoassay). Settings: 0.7 nM CSF-1R, 308 μM SYEGNSYTFIDPTQ peptide, 1 mM ATP, 80 min; mean of at least three determinations; read-out: c-fms Peptide IC50.
Assay type: biochemical
Procedure, shortened: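 Human CSF-1R kinase reaction started with ATP and run 80 min at room temperature, then stopped with EDTA. Phosphopeptide detected by fluorescence polarization competition using anti-phosphotyrosine antibody and PTK green tracer after 30 min. Controls used 4% DMSO, with EDTA added before reaction start for positive controls.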

Sequence of CSF-1R (P07333 20-972): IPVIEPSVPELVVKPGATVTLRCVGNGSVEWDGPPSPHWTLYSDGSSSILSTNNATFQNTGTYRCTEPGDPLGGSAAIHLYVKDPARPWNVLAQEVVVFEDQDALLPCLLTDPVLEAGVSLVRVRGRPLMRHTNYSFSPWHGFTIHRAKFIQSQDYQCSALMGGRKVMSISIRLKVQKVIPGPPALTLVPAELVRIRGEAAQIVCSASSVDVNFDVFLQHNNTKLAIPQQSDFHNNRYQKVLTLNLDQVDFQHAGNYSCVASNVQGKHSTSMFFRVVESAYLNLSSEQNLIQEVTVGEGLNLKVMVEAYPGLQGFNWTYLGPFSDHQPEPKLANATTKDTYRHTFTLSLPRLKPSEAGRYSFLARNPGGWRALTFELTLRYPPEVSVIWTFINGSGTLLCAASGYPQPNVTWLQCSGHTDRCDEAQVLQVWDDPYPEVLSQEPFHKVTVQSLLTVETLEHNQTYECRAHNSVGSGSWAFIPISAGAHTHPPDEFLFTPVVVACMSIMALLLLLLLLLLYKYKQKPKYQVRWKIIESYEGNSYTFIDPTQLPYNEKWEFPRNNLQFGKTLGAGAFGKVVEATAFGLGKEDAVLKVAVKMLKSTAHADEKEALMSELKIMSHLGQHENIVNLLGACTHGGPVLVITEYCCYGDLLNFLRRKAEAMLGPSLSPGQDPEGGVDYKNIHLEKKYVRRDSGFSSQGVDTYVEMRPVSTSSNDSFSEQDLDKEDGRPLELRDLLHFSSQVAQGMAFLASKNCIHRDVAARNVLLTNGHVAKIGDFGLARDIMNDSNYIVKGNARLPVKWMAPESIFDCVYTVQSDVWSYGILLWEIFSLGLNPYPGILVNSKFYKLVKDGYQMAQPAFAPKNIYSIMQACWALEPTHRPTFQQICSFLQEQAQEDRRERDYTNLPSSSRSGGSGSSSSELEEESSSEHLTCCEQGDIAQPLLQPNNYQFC

SMILES | IC50 [nM]
CONC(=O)c1cn(-c2ccc3c(c2)CCC3)c2nc(Nc3ccc(CCN4CCC[C@@H]4CO)cc3)ncc2c1=O [Cpd 101, (R)-2-{4-[2-(2-hydroxymethyl-pyrrolidin-1-yl)-ethyl]-phenylamino}-8-indan-5-yl-5-oxo-5,8-dihydro-pyrido[2,3-d]pyrimidine-6-carboxylic acid methoxy-amide] | 0.55
CONC(=O)c1cn(-c2ccc3c(c2)CCC3)c2nc(Nc3ccc(CC(=O)NN4CCCCC4)cc3)ncc2c1=O [Cpd 102, 8-indan-5-yl-5-oxo-2-[4-(piperidin-1-ylcarbamoylmethyl)-phenylamino]-5,8-dihydro-pyrido[2,3-d]pyrimidine-6-carboxylic acid methoxy-amide] | 2.3
CCc1ccc(-n2cc(C(=O)NOC)c(=O)c3cnc(Nc4ccc(CC(=O)O)cc4)nc32)cc1 [Cpd 103, {4-[8-(4-ethyl-phenyl)-6-methoxycarbamoyl-5-oxo-5,8-dihydro-pyrido[2,3-d]pyrimidin-2-ylamino]-phenyl}-acetic acid] | 7.2
CCc1ccc(-n2cc(C(=O)NOC)c(=O)c3cnc(Nc4ccc(CC(=O)NN5CCCCC5)cc4)nc32)cc1 [Cpd 104, 8-(4-ethyl-phenyl)-5-oxo-2-[4-(piperidin-1-ylcarbamoylmethyl)-phenylamino]-5,8-dihydro-pyrido[2,3-d]pyrimidine-6-carboxylic acid methoxy-amide] | 3
CCc1ccc(-n2cc(C(=O)NOC)c(=O)c3cnc(Nc4ccc(CC(=O)NN(C)C)cc4)nc32)cc1 [Cpd 105, 2-[4-(N′,N′-dimethyl-hydrazinocarbonylmethyl)-phenylamino]-8-(4-ethyl-phenyl)-5-oxo-5,8-dihydro-pyrido[2,3-d]pyrimidine-6-carboxylic acid methoxy-amide] | 1.4
CCc1ccc(-n2cc(C(=O)NOC)c(=O)c3cnc(Nc4ccc(CC(=O)NNC)cc4)nc32)cc1 [Cpd 106, 8-(4-ethyl-phenyl)-2-[4-(N′-methyl-hydrazinocarbonylmethyl)-phenylamino]-5-oxo-5,8-dihydro-pyrido[2,3-d]pyrimidine-6-carboxylic acid methoxy-amide] | 1.6
CONC(=O)c1cn(-c2ccc3c(c2)CCC3)c2nc(Nc3ccc(CCNC4C5CC6CC(C5)CC4C6)cc3)ncc2c1=O (centres unmarked) [Cpd 107, 2-{4-[2-(adamantan-2-ylamino)-ethyl]-phenylamino}-8-indan-5-yl-5-oxo-5,8-dihydro-pyrido[2,3-d]pyrimidine-6-carboxylic acid methoxy-amide] | 1.5
CONC(=O)c1cn(-c2ccc3c(c2)CCC3)c2nc(Nc3ccc(CCNC4CC5CCC4C5)cc3)ncc2c1=O (centres unmarked) [Cpd 108, 2-{4-[2-(bicyclo[2.2.1]hept-2-ylamino)-ethyl]-phenylamino}-8-indan-5-yl-5-oxo-5,8-dihydro-pyrido[2,3-d]pyrimidine-6-carboxylic acid methoxy-amide] | 0.88
CONC(=O)c1cn(-c2ccc3c(c2)CCC3)c2nc(Nc3ccc(CCN4CCC[C@@H]4C(=O)O)cc3)ncc2c1=O [Cpd 109, (R)-1-{2-[4-(8-indan-5-yl-6-methoxycarbamoyl-5-oxo-5,8-dihydro-pyrido[2,3-d]pyrimidin-2-ylamino)-phenyl]-ethyl}-pyrrolidine-2-carboxylic acid] | 1.1
CONC(=O)c1cn(-c2ccc3c(c2)CCC3)c2nc(Nc3ccc(CCN4C5CCC4CC5)cc3)ncc2c1=O [Cpd 110, 2-{4-[2-(7-aza-bicyclo[2.2.1]hept-7-yl)-ethyl]-phenylamino}-8-indan-5-yl-5-oxo-5,8-dihydro-pyrido[2,3-d]pyrimidine-6-carboxylic acid methoxy-amide] | 0.46
CONC(=O)c1cn(-c2ccc3c(c2)CCC3)c2nc(Nc3ccc(C4CCN(C(C)C)CC4)cc3)ncc2c1=O [Cpd 111, 8-indan-5-yl-2-[4-(1-isopropyl-piperidin-4-yl)-phenylamino]-5-oxo-5,8-dihydro-pyrido[2,3-d]pyrimidine-6-carboxylic acid methoxy-amide] | 0.58
